Test results from patent US20060030616A1, “Anhydride modified cantharidin analogues useful in the treatment of cancer” (priority 1998, published 2006).
Like-named read-outs stand apart in the source and are kept apart here.

How the values were obtained:
[1] = test system: protein phosphatase 1 (PP1); experiment: Inhibition of protein phosphatase 1, [32P]-phosphorylase substrate; format: biochemical, chicken; settings: for Inhibition of PP1 (%): initial screening at 100 mM (so in the source)
Description: (§1) All synthesised compounds were tested for their ability to inhibit protein phosphatases 1 and 2A. Initial investigations were carried out at 100 mM. Promising analogues were then assayed in triplicate for estimation of IC50 values.
(§2) Protein phosphatase 1 and 2A were partially purified from chicken skeletal muscle essentially as described by Cohen Protein phosphatase activity was measured at 37° C. in 50 mM Tris-HCl buffer (pH 7.4), 0.1 mM EDTA, 5 mM caffeine, 0.1% 2-mercaptoethanol and 1 mg/ml bovine serum albumin using […] [^32P]-phosphorylase as substrate. The total assay volume was […]. The assay conditions were restricted to 20% dephosphorylation to ensure linearity and inhibition of protein phosphatase activity was determined by including cantharidin or its analogues at the required concentrations in the reaction buffer. Reactions were terminated by the addition of 0.1 ml ice cold 20% trichloroacetic acid. Precipitated protein was pelleted by centrifugation and the radioactivity in the supernatant measured by liquid scintillation counting. Data is expressed as the percentage inhibition with respect to a control (absence of a competing compound) incubation.
(§3) Anhydrides and simple analogues were synthesised according to literature procedures (Eggelte et. al; 1973), and then subjected to a PP1 and PP2A bio-assay (see biochemistry) to determine their ability to inhibit these enzymes. The results of initial screening at 100 mMs are shown in Table 4, along with IC50 values in some instances.

[2] = target: protein phosphatase 2A (PP2A) (Gallus gallus, UniProt P48463); experiment: Inhibition of protein phosphatase 2A, [32P]-phosphorylase substrate; format: biochemical, chicken; set-up: inhibition: dose or concentration left out as unconfirmed
Description: as §1, §2, §3

[3] = Stability under assay conditions; format: physicochemical; settings: PP assay conditions
[4] = test system: protein phosphatase 2A (PP2A); settings: cited from earlier work; for IC50: background art
L1210 cells = experiment: MTT cytotoxicity assay, 72 h; format: cell-based, murine; settings: L1210, p53 wt; read-out: IC50 (mean ± SE) after 72 h continuous exposure
Description: (§4) Cells in a subconfluent phase are transferred to 96-well microtitre plates. L1210 cells are plated at a density of 1000 cells/well in 100 μl medium, while all other cell lines are plated at a density of 2000-25000 cells/well. The cells are left for 24 h prior to treatment to ensure exponential growth has been achieved, 24 h after plating (day 0), 100 μl of phosphatase inhibitor is added to each well, control wells received 100 μl of medium only. Drug exposure time is 72 h (day 3). The effect of phosphatase inhibition is tested in triplicate over a concentration range of […]−1×10^−8 M. Growth inhibitory effects are evaluated using the MTT assay and absorbance read at […]. The IC50 is the drug concentration at which cell growth is 50% inhibited based on the difference of optical density on day 0 and day 3 of drug exposure. Cytotoxicity is evaluated using a spectrophotometric assay which determines the percentage of cell growth following exposure of the cells to various concentrations of the phosphatase inhibitors for a period of 72 hours. The subsequent dose response curve is used to calculate IC50 values (the drug concentration at which cell growth is 50% inhibited).
(§5) Anti-cancer screening of the protein phosphatase inhibitors is assessed using the MTT assay. This assay determines cell viability by the ability of mitochondrial dehydrogenase to produce formazan crystals from 3-(4,5-dimethylthiazol-2-yl)-2,5-diphenyltetrazolium bromide. The viable cell number/well is directly proportional to the production of formazan, which following solubilization, can be measured spectrophotometrically (540 nm). This technique is also used by the National Cancer Institute to screen for new anticancer agents.
(§6) As described herein a number of cantharidin analogues have been synthesised and tested for their anticancer activity in nine cancer cell lines using the MTT assay after 72 h exposure. These new analogues are shown in FIG. 2 and have been designated MK-1 through to MK-9.

WiDr cells = experiment: MTT cytotoxicity assay, 72 h; format: cell-based, human; settings: p53 mt, read-out: IC50 (mean ± SE) after 72 h continuous exposure
Description: as §4, §5, §6

A2780 cells = experiment: MTT cytotoxicity assay, 72 h; format: cell-based, human; settings: A2780, p53 wt; read-out: IC50 (mean ± SE) after 72 h continuous exposure
Description: as §4, §5, §6

HCT116 cells = experiment: MTT cytotoxicity assay, 72 h; format: cell-based, human; settings: HCT116, p53 wt; read-out: IC50 (mean ± SE) after 72 h continuous exposure
Description: as §4, §5, §6

HL60 cells = experiment: MTT cytotoxicity assay, 72 h; format: cell-based, human; settings: HL60, p53 nul; read-out: IC50 (mean ± SE) after 72 h continuous exposure
Description: as §4, §5, §6

143B cells = experiment: MTT cytotoxicity assay, 72 h; format: cell-based, human; settings: p53 mt, read-out: IC50 (mean ± SE) after 72 h continuous exposure
Description: as §4, §5, §6

ADDP cells = experiment: MTT cytotoxicity assay, 72 h; format: cell-based, human; settings: p53 mt, read-out: IC50 (mean ± SE) after 72 h continuous exposure
Description: as §4, §5, §6

HT29 cells = experiment: MTT cytotoxicity assay, 72 h; format: cell-based, human; settings: HT29, p53 mt; read-out: IC50 (mean ± SE) after 72 h continuous exposure
Description: as §4, §5, §6

SW480 cells = experiment: MTT cytotoxicity assay, 72 h; format: cell-based, human; settings: SW480, p53 mt; read-out: IC50 (mean ± SE) after 72 h continuous exposure
Description: as §4, §5, §6

nine cancer cell lines = experiment: MTT cytotoxicity assay, 72 h, ranges over cell line panel; format: cell-based
Description: as §4, §5, §6

[5] = target: protein phosphatase 1 (PP1); settings: background art; cited from earlier work
[6] = nine cell lines, read-out: IC50 range across all cell lines tested

Sequence of protein phosphatase 2A (PP2A) (Gallus gallus, UniProt P48463) (P48463 whole entry): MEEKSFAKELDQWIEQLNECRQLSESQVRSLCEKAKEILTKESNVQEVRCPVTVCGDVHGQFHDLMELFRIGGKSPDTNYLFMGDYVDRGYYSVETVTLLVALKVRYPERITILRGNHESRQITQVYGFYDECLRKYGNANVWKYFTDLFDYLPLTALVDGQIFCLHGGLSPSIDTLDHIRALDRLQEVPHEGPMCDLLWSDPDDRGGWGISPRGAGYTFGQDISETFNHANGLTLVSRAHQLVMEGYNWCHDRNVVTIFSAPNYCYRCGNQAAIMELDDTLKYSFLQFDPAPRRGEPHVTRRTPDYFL

For `COC(=O)C1C2C=CC(S2)C1C(=O)OC` (stereo not shown), the “Inhibition of PP1 (%)” value [1] was 3%.

With `O=C1NC(=O)C2C3CCC(S3)C12` (stereo not shown) the “Inhibition of PP1 (%)” value [1] was 15%.

In the case of `O=C1OC(=O)C2C3CCC(O3)C12` (stereo not shown) [Compound 1], the IC50 [1] is reported as 2.4 µM, the “Selectivity PP2A/PP1” value [1] is reported as 0.875 and the “Inhibition of PP1 (%)” value [1] is reported as 90%. The inhibition [2] was 97%.

Molecule `O=C1OC(=O)C2C3C=CC(O3)C12` (stereo not shown) [Compound 2, norcantharidin, reference compound] has an inhibition [2] of 95%.

For `O=C1OC(=O)[C@H]2[C@@H]1[C@H]1CC[C@H]2O1` [Compound 2, norcantharidin], the “Stability under assay conditions” value [3] is listed as “rapid conversion to the dicarboxylic acid”, the “Previously reported PP2A selectivity” value ([4]; PP2A over PP1) is listed as roughly 10 fold and the “Inhibition of PP2A (%)” value ([2]; initial screening at 100 mM (so in the source)) is listed as 95%.

With `COC(=O)C1C2C=CC(O2)C1C(=O)OC` (stereo not shown) [Compound 3] the IC50 [1] was 50 µM, the “Selectivity PP2A/PP1” value [1] was greater than 200 and the “Inhibition of PP1 (%)” value [1] was 46%. For the same molecule, the inhibition [2] was 6%.

With `CO[C@H]1OC(=O)C2C3CCC(O3)C21` (stereo partly shown) [Compound 4] the “Inhibition of PP1 (%)” value [1] was 13% and the inhibition [2] was 11%.

In the case of `CO[C@@H]1OC(=O)C2C3CCC(O3)C21` (stereo partly shown) [Compound 5], the “Inhibition of PP1 (%)” value [1] is reported as 15% and the inhibition [2] is reported as 8%.

With `O=C1OC(O)C2C3CCC(O3)C12` (stereo not shown) [Compound 6] the “Inhibition of PP1 (%)” value [1] was 9% and the inhibition [2] was 11%.

For `O=C1OCC2C3CCC(O3)C12` (stereo not shown) [Compound 7], the inhibition [2] was 21%.

`O=C1NC(=O)C2C3C=CC(S3)C12` (stereo not shown) [MK-1] showed an IC50 (L1210 cells) greater than 1000 µM, an IC50 (WiDr cells) greater than 1000 µM and an IC50 (A2780 cells) greater than 1000 µM. It also gave an IC50 (HCT116 cells) greater than 1000 µM, an IC50 (HL60 cells) greater than 1000 µM and an IC50 (143B cells) greater than 1000 µM. For the same molecule, the IC50 (ADDP cells) was greater than 1000 µM, the IC50 (HT29 cells) was greater than 1000 µM and the IC50 (SW480 cells) was greater than 1000 µM. It also gave an IC50 (nine cancer cell lines; [6]) greater than 1000 µM.

For `O=C(O)C1C2C=CC(O2)C1C(=O)Oc1ccccc1` (stereo not shown) [MK-3], the IC50 (L1210 cells) was 647 ± 132 µM, the IC50 (WiDr cells) was 620 ± 31 µM and the IC50 (A2780 cells) was 317 ± 17 µM. The IC50 (HCT116 cells) was greater than 1000 µM, the IC50 (HL60 cells) was 247 ± 55 µM and the IC50 (143B cells) was 665 ± 225 µM. The IC50 (ADDP cells) was greater than 1000 µM, the IC50 (HT29 cells) was 530 ± 112 µM and the IC50 (SW480 cells) was 444 ± 27 µM. The IC50 (nine cancer cell lines; [6]) was no less than 247 µM.

Molecule `COC1OC(=O)C2C3CCC(O3)C12` (stereo not shown) [MK-5] has an IC50 (L1210 cells) greater than 1000 µM, an IC50 (WiDr cells) of 31 ± 10 µM and an IC50 (A2780 cells) of 567 ± 109 µM. The IC50 (HCT116 cells) was 143 ± 23 µM, the IC50 (HL60 cells) was 323 ± 13 µM and the IC50 (143B cells) was greater than 1000 µM. For the same molecule, the IC50 (ADDP cells) was 260 ± 40 µM, the IC50 (HT29 cells) was 28 ± 1 µM and the IC50 (SW480 cells) was 247 ± 14 µM. For the same molecule, the IC50 (nine cancer cell lines; colon lines, read-out: IC50 range in human colon cancer cell lines) was 28 to 247 µM, the IC50 (nine cancer cell lines; leukaemia lines, read-out: IC50 range in leukaemia cells) was no less than 323 µM and the IC50 (nine cancer cell lines; ovarian lines, read-out: IC50 range in ovarian cells) was 260 to 567 µM.

For `C=C1[C@@H](O)[C@@H]2O[C@]3(CC[C@H](/C=C/[C@@H](C)[C@@H]4CC(C)=C[C@@]5(O[C@H](C[C@@](C)(O)C(=O)O)CC[C@H]5O)O4)O3)CC[C@H]2O[C@@H]1[C@@H](O)C[C@H](C)[C@H]1O[C@@]2(CCCCO2)CC[C@H]1C` [Okadaic acid], the IC50 [5] is given as 0.06 µM and the IC50 [4] is given as 0.001 µM.

For `O=C1SC(=O)[C@H]2[C@@H]1[C@@H]1CC[C@H]2O1` [endothal thioanhydride], the “Potency relative to cantharidin” value [4] is given as “three fold more potent than cantharidin”.

In the case of calyculin, the IC50 [5] is given as 0.0005 to 0.001 µM and the IC50 [4] is given as 0.002 µM.
